Data reported in publication PMC10313671, “Accelerating the prediction and discovery of peptide hydrogels with human-in-the-loop” (Nature Communications, 2023).
Where a SMILES comes first, the peptide text is derived from it.

Experiments:
[1] = Peptide hydrogel formation, vial-inverting method; format: physicochemical; design: key to EXP / GELATION: 0: no hydrogel; 1: hydrogel; conditions: for State: ultrasonication, standing 48 h; for Concentration: concentration at which the state was recorded: lowest of 30, 60, 90, 120 mM that gave a gel, 120 mM for non-gelating peptides; for GELATION: 1 = hydrogel, 0 = no hydrogel
Method: After validating the efficiency of APHC in predicting tetrapeptide hydrogels, we detailed the phase state of 165 synthesized tetrapeptides and the observed assembly behavior in an aqueous solution.
This work defines hydrogel formation as a self-supporting, non-flowing mixture of water and hydrogelator by the vial-inverting method. All purified tetrapeptides were dissolved in ultrapure water (to form a 30 mM solution initially), followed by the stepwise addition of 1 N NaOH solution to adjust the overall aqueous pH to 6.5–8.5. Meanwhile, a short-term ultrasonication treatment was applied after each pH adjustment to facilitate peptide solubilization and speed up peptide self-assembly. […] The mixture was allowed to stand in for another 48 h for complete hydrogelation. Upon the absence of gelation phenomenon during the aforementioned loops, we increased the peptide concentration (60 mM, 90 mM, and 120 mM were selected) and re-started such gelation operation loop to explore their gelation feasibility.

[2] = Transmission electron microscope (negative staining) of peptide assemblies; conditions: for Morphology: TEM, negative staining with uranyl acetate, 120 kV
Method: We used the negative staining technique to observe the morphologies formed by peptides. A micropipette was used to load 10 μL of sample solution to a carbon-coated copper grid, and we used a piece of filter paper to remove the excess solution. After rinsing the grid with the deionized water, we used uranyl acetate to stain the sample for 1 minute and then rinsed the grid with deionized water again.

[3] = 120 mM peptide (highest tested) in ultrapure water, pH 6.5-8.5 (1 N NaOH), vial-inverting method, precipitate, sol, suspension = no gel
[4] = peptide concentration 120 mM, vial-inverting method
[5] = 90 mM peptide in ultrapure water, pH 6.5-8.5 (1 N NaOH), vial-inverting method, no gel at lower concentrations
[6] = peptide concentration 90 mM, vial-inverting method
[7] = 30 mM peptide in ultrapure water, pH adjusted to 6.5-8.5 with 1 N NaOH, vial-inverting method, concentration raised 30/60/90/120 mM until gelation
[8] = peptide concentration 30 mM, vial-inverting method
[9] = 60 mM peptide in ultrapure water, pH 6.5-8.5 (1 N NaOH), vial-inverting method, no gel at 30 mM
[10] = peptide concentration 60 mM, vial-inverting method

SMILES	State [1, 3]	Concentration [1] [µM]	GELATION [1, 4]	Morphology ([2]; line of the table gives 120 mM)	State [1, 7]	GELATION [1, 8]	Morphology ([2]; line of the table gives 30 mM)	other results
CC(C)C[C@H](N)C(=O)N[C@@H](Cc1ccccc1)C(=O)N[C@@H](Cc1c[nH]c2ccccc12)C(=O)N[C@@H](CO)C(=O)O [LFWS] (H-LFWS-OH)	gel	120000	1	sphere	–	–	–	–
CC(C)C[C@H](N)C(=O)NCC(=O)N[C@H](C(=O)N[C@@H](Cc1ccccc1)C(=O)O)C(C)C [LGVF] (H-LGVF-OH)	sol	120000	0	fibre	–	–	–	–
CC[C@H](C)[C@H](NC(=O)[C@@H](NC(=O)[C@H](Cc1c[nH]cn1)NC(=O)[C@@H](N)CC(C)C)[C@@H](C)CC)C(=O)O [LHII] (H-LHII-OH)	sol	120000	0	aggregates	–	–	–	–
CC[C@H](C)[C@H](NC(=O)[C@@H](N)CC(C)C)C(=O)N[C@@H](CCC(=O)O)C(=O)N[C@@H](CCSC)C(=O)O [LIEM] (H-LIEM-OH)	–	90000	–	–	–	–	–	State [1, 5]: gel; GELATION [1, 6]: 1; Morphology ([2]; line of the table gives 90 mM): hybrid(sheet+fibre)
CC(C)C[C@H](NC(=O)[C@@H](N)CC(C)C)C(=O)N[C@@H](Cc1c[nH]cn1)C(=O)N[C@@H](Cc1ccccc1)C(=O)O [LLHF] (H-LLHF-OH)	–	30000	–	–	gel	1	hybrid(sphere+fibre)	–
CC(C)C[C@H](NC(=O)[C@H](CC(C)C)NC(=O)[C@@H](N)CC(C)C)C(=O)N[C@@H](Cc1ccccc1)C(=O)O [LLLF] (H-LLLF-OH)	–	30000	–	–	gel	1	aggregates	–
CC(C)C[C@H](NC(=O)[C@H](CC(C)C)NC(=O)[C@H](CC(C)C)NC(=O)[C@@H](N)CC(C)C)C(=O)O [LLLL] (H-LLLL-OH)	–	30000	–	–	gel	1	needle	–
CC(C)C[C@H](NC(=O)[C@H](CC(C)C)NC(=O)[C@@H](N)CC(C)C)C(=O)N[C@@H](CO)C(=O)O [LLLS] (H-LLLS-OH)	–	30000	–	–	gel	1	sheet	–
CC(C)C[C@H](NC(=O)[C@H](CC(C)C)NC(=O)[C@@H](N)CC(C)C)C(=O)N[C@@H](Cc1ccc(O)cc1)C(=O)O [LLLY] (H-LLLY-OH)	–	30000	–	–	gel	1	hybrid(sphere+fibre)	–
CC(C)C[C@H](NC(=O)[C@@H](N)CC(C)C)C(=O)N[C@@H](CCCNC(=N)N)C(=O)N[C@@H](CCC(N)=O)C(=O)O [LLRQ] (H-LLRQ-OH)	suspension	120000	0	aggregates	–	–	–	–
CC(C)C[C@H](NC(=O)[C@H](CO)NC(=O)[C@H](CC(C)C)NC(=O)[C@@H](N)CC(C)C)C(=O)O [LLSL] (H-LLSL-OH)	–	60000	–	–	–	–	–	State [1, 9]: gel; GELATION [1, 10]: 1; Morphology ([2]; line of the table gives 60 mM): sheet
CC(C)C[C@H](N)C(=O)N[C@@H](CCCNC(=N)N)C(=O)N[C@@H](Cc1ccccc1)C(=O)N[C@@H](Cc1c[nH]cn1)C(=O)O [LRFH] (H-LRFH-OH)	sol	120000	0	particle	–	–	–	morphology by TEM (in words) ([2]; aqueous solution or hydrogel, negative staining): aggregates with different sizes
CC(C)C[C@H](N)C(=O)N[C@@H](CO)C(=O)N[C@@H](Cc1ccccc1)C(=O)N[C@@H](Cc1c[nH]c2ccccc12)C(=O)O [LSFW] (H-LSFW-OH)	–	60000	–	–	–	–	–	State [1, 9]: gel; GELATION [1, 10]: 1; Morphology ([2]; line of the table gives 60 mM): hybrid(sphere+fibre)
CC(C)C[C@H](NC(=O)[C@@H](NC(=O)[C@@H](N)CC(C)C)[C@@H](C)O)C(=O)N[C@@H](Cc1ccccc1)C(=O)O [LTLF] (H-LTLF-OH)	–	30000	–	–	gel	1	sheet	–
CC[C@H](C)[C@H](NC(=O)[C@H](CC(C)C)NC(=O)[C@@H](NC(=O)[C@@H](N)CC(C)C)[C@@H](C)O)C(=O)O [LTLI] (H-LTLI-OH)	–	30000	–	–	gel	1	sheet	–
CC(C)C[C@H](N)C(=O)N[C@H](C(=O)N[C@@H](Cc1c[nH]c2ccccc12)C(=O)N[C@@H](Cc1ccccc1)C(=O)O)[C@@H](C)O [LTWF] (H-LTWF-OH)	sol	120000	0	aggregates	–	–	–	–
CC[C@H](C)[C@H](NC(=O)[C@H](C)NC(=O)[C@@H](NC(=O)[C@@H](N)CC(C)C)C(C)C)C(=O)O [LVAI] (H-LVAI-OH)	–	60000	–	–	–	–	–	State [1, 9]: gel; GELATION [1, 10]: 1; Morphology ([2]; line of the table gives 60 mM): fibre
CC(C)C[C@H](N)C(=O)N[C@H](C(=O)N[C@@H](Cc1ccccc1)C(=O)N[C@@H](Cc1ccccc1)C(=O)O)C(C)C [LVFF]	–	30000	–	–	gel	1	sphere	–
CC(C)C[C@H](N)C(=O)N[C@H](C(=O)N[C@@H](Cc1ccccc1)C(=O)NCC(=O)O)C(C)C [LVFG] (H-LVFG-OH)	–	60000	–	–	–	–	–	State [1, 9]: gel; GELATION [1, 10]: 1; Morphology ([2]; line of the table gives 60 mM): aggregates
CC(C)C[C@H](N)C(=O)N[C@H](C(=O)N[C@@H](Cc1c[nH]cn1)C(=O)N[C@@H](Cc1ccccc1)C(=O)O)C(C)C [LVHF] (H-LVHF-OH)	–	30000	–	–	gel	1	hybrid(sphere+fibre)	–
CC[C@H](C)[C@H](NC(=O)[C@@H](NC(=O)[C@@H](N)CC(C)C)C(C)C)C(=O)N[C@@H](Cc1ccccc1)C(=O)O [LVIF] (H-LVIF-OH)	–	60000	–	–	–	–	–	State [1, 9]: gel; GELATION [1, 10]: 1; Morphology ([2]; line of the table gives 60 mM): fibre
CC[C@H](C)[C@H](NC(=O)[C@@H](NC(=O)[C@@H](NC(=O)[C@@H](N)CC(C)C)C(C)C)[C@@H](C)CC)C(=O)O [LVII] (H-LVII-OH)	–	30000	–	–	gel	1	sheet	–
CC[C@H](C)[C@H](NC(=O)[C@@H](NC(=O)[C@@H](N)CC(C)C)C(C)C)C(=O)N[C@@H](Cc1ccc(O)cc1)C(=O)O [LVIY] (H-LVIY-OH)	gel	120000	1	sheet	–	–	–	–
CC[C@H](C)[C@H](NC(=O)[C@H](CC(C)C)NC(=O)[C@@H](NC(=O)[C@@H](N)CC(C)C)C(C)C)C(=O)O [LVLI] (H-LVLI-OH)	–	30000	–	–	gel	1	sheet	–
CC(C)C[C@H](N)C(=O)N[C@H](C(=O)N1CCC[C@H]1C(=O)N[C@@H](Cc1ccccc1)C(=O)O)C(C)C [LVPF] (H-LVPF-OH)	sol	120000	0	aggregates	–	–	–	–
CC(C)C[C@H](N)C(=O)N[C@H](C(=O)N[C@@H](Cc1c[nH]c2ccccc12)C(=O)N[C@@H](Cc1ccccc1)C(=O)O)C(C)C [LVWF] (H-LVWF-OH)	–	90000	–	–	–	–	–	State [1, 5]: gel; GELATION [1, 6]: 1; Morphology ([2]; line of the table gives 90 mM): needle
CC(C)C[C@H](N)C(=O)N[C@@H](Cc1c[nH]c2ccccc12)C(=O)N[C@@H](Cc1ccccc1)C(=O)N[C@@H](Cc1ccccc1)C(=O)O [LWFF] (H-LWFF-OH)	–	30000	–	–	gel	1	hybrid(sheet+fibre)	–
CC[C@H](C)[C@H](NC(=O)[C@H](Cc1ccccc1)NC(=O)[C@H](Cc1c[nH]c2ccccc12)NC(=O)[C@@H](N)CC(C)C)C(=O)O [LWFI] (H-LWFI-OH)	sol	120000	0	aggregates	–	–	–	–
CC(C)C[C@H](N)C(=O)N[C@@H](Cc1c[nH]c2ccccc12)C(=O)N[C@@H](Cc1ccccc1)C(=O)N[C@@H](Cc1c[nH]c2ccccc12)C(=O)O [LWFW] (H-LWFW-OH)	–	30000	–	–	gel	1	sphere	CONCENTRATION (at which the hydrogel formed) ([1]; hydrogel-forming peptides only, vial-inverting method): 30000 µM
CC(C)C[C@H](N)C(=O)N[C@@H](Cc1c[nH]c2ccccc12)C(=O)N[C@@H](Cc1c[nH]c2ccccc12)C(=O)N[C@@H](Cc1ccccc1)C(=O)O [LWWF] (H-LWWF-OH)	–	30000	–	–	gel	1	aggregates	–
